Data taken from the OPERA property sets (Mansouri et al. 2018).

Compound	logP
CC(=O)c1cccc(Br)c1	2.47
COc1cccc(Br)c1	3.03
COc1ccc(OC)cc1	2.04
Cc1cccc(Br)c1	3.41
CC(=O)c1cccc(N)c1	0.83
Clc1ccc(Br)cc1	3.54
Clc1cccc(Br)c1	3.7
CC(=O)c1cccc(C)c1	2.15

Now from value to compound:

logP	Compound
2.21	Fc1cccc(F)c1
2.92	Fc1cccc(Br)c1
3.42	Cc1ccc(Br)cc1
2.13	Fc1ccc(F)cc1
3.08	Fc1ccc(Br)cc1
2.78	Fc1ccc(Cl)cc1
2.75	Cc1cccc(F)c1
2.36	COc1cccc(F)c1
2.26	COc1ccc(F)cc1
2.58	Cc1ccc(F)cc1
3.05	COc1ccc(Br)cc1
